Each block holds one molecule with its values, some of them ahead of it.
Experiments:
[1] = tested on: APAP-induced liver injury (AILI); conditions: cited from earlier work
TFEB [2] = target: T1, TFEB (Homo sapiens, UniProt P19484); test: GFP-TFEB nuclear translocation validation by confocal microscopy in AML12 cells; assay type: cell-based, mouse; conditions: stably expressing pEGFP-N1-TFEB AML12 cells, 24 h, vs control
T1 sequence (P19484 1-476): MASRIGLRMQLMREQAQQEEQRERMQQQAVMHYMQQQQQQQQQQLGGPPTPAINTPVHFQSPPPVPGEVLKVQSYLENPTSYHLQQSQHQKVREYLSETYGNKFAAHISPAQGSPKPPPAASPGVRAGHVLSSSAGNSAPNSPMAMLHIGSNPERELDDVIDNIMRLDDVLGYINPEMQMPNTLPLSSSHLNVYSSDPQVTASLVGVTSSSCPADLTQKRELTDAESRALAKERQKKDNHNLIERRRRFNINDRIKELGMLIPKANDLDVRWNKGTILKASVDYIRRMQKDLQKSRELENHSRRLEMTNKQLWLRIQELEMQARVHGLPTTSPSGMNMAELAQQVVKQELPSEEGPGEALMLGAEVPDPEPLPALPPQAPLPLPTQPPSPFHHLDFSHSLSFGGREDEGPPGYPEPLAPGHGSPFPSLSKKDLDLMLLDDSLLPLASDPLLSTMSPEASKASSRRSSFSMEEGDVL

[3] = tested on: APAP-induced liver injury (AILI); test: Protection against APAP overdose-induced liver injury in mice; assay type: in vivo, mouse
TFEB [4] = test: TFEB promoter-driven luciferase reporter assay in AML12 cells; assay type: cell-based, mouse; conditions: AML12 cells transfected with pGL3-TFEB-Luc, 24 h treatment
TFEB [5] = test: qPCR of TFEB target genes in AML12 cells; assay type: cell-based, mouse; conditions: qPCR normalized to 18s
TFEB [6] = target: T1, TFEB; test: GFP-TFEB nuclear translocation assay in qHTS format; assay type: cell-based, mouse
[7] = salinomycin 5 mg/kg i.p. with APAP 500 mg/kg i.p., 6 and 24 h

levels of hepatic GSH (mouse livers; APAP 0.5, 2 and 6 h, recovered at 24 h): significantly decreased
mRNA levels of TFEB targeted genes in liver (mouse livers; APAP 500 mg/kg, 6 h, vs saline): significantly lower
levels of hepatic CYP2E1 (mouse livers; APAP-treated WT mouse livers vs saline-treated WT): ~2 fold
SMILES: CC(=O)Nc1ccc(O)cc1 [APAP, Acetaminophen]
serum alanine aminotransferase (ALT) levels (mouse livers; APAP 500 mg/kg i.p., 6 or 24 h, vs saline): significantly increased

SMILES: C[C@@H]1O[C@@H](OC[C@H]2O[C@@H](Oc3cc(O)c4c(c3)O[C@H](c3ccc(O)cc3)CC4=O)[C@H](O)[C@@H](O)[C@@H]2O)[C@H](O)[C@H](O)[C@H]1O [Narirutin]
hepatic APAP-adducts and AILI ([1]; mice, by activating TFEB via enhanced calcineurin activity): decrease

SMILES: CC[C@@H](C(=O)[C@@H](C)[C@@H](O)[C@H](C)[C@@H]1O[C@@H]([C@@H](CC)C(=O)O)CC[C@@H]1C)[C@H]1O[C@]2(C=C[C@@H](O)[C@]3(CC[C@@](C)([C@H]4CC[C@](O)(CC)[C@H](C)O4)O3)O2)[C@H](C)C[C@@H]1C [Salinomycin]
nuclear translocation of TFEB (TFEB [2]): significantly increased
hepatic levels of APAP-protein adducts ([3]; APAP-treated mice with or without salinomycin): similar
serum levels of APAP-adducts ([3]; APAP-treated mice with salinomycin): markedly decreased
hepatic protein levels of CYP2E1 ([3]; immunoblotting, salinomycin 5 mg/kg i.p.): did not change
hepatic TFEB levels ([3]; immunoblotting, salinomycin with APAP vs APAP): partially recovered
levels of phosphorylated JNK ([3]; liver, co-treatment of salinomycin after APAP overdose): reduced
areas of centrilobular necrosis (H&E and TUNEL staining) ([3]; salinomycin 5 mg/kg i.p. with APAP 500 mg/kg i.p.): almost completely abolished
serum ALT levels [3, 7]: markedly decreased
serum AST levels [3, 7]: markedly decreased
TFEB promoter driven luciferase activity (TFEB [4]): significantly increased
mRNA levels of TFEB target genes (Tfeb, Sqstm1, Ppargc1a, Lamp1, Vatp6v1d, Vatp6v1h, Pparα) (TFEB [5]): increased
EC50 (TFEB [6]): 2640 nM

SMILES: CCN(CC)CCNC(=O)c1c(C)[nH]c(/C=C2\C(=O)Nc3ccc(F)cc32)c1C [Sunitinib]
effect on AILI at high dose ([1]; high dose): increases AILI
effect on AILI at low dose ([1]; low dose): mild hepatoprotective effect

nuclear translocation of TFEB (TFEB [2]): significantly increased
SMILES: CCC(=O)N1CCN(c2ccc(-n3c(=O)ccc4cnc5ccc(-c6cnc7ccccc7c6)cc5c43)cc2C(F)(F)F)CC1 [Torin1, Torin 1]
